Reference: patent publication US20150031674A1, “SERINE/THREONINE KINASE INHIBITORS” (GENENTECH, INC., priority 2013, published 2015)
pIC50, pKi: −log10 of the molar value.

Each compound was assayed on group I PAKs in EBC1 cells (MEK1 phosphorylation at S298) (assay: Cellular PAK IC50 Assay: MEK1 phosphorylation at S298 by HTRF). Conditions: Homo sapiens, EBC-1, 2 h treatment, media containing 0.1% FBS, phospho-MEK1 (S298) HTRF.
Format: cell-based
Method: Cellular PAK IC50 Assay Protocol
Group I PAKs (PAK1-3) are activated upon binding to the Rho GTPases, Rac1 and Cdc42. Activated group I PAKs phosphorylate MEK1 at Serine 298 (S298), one of the two sites in the catalytic domain that is important for stable association between Raf and MEK1 and subsequent MAPK activation. The inhibition of group I PAKs in EBC1 cells is assessed by detecting changes in the level of MEK1 phosphorylation at S298 using homogenous time-resolved fluorescence (HTRF). Inhibitory activity was estimated by treating 2×10^4 EBC1 cells for 2 h with PAK inhibitors in media containing 0.1% FBS. Following inhibitor treatment, cells were lysed with 25 μL of 1× cellular kinase lysis buffer (Cisbio) containing 1× cellular kinase blocking reagent (Cisbio). Cellular lysis was carried out at 4° C. for 2 h with constant shaking before lysate (16 μL) was transferred to white 384-well ProxiPlates™ (Perkin Elmer). Anti-total MEK1 antibody labeled with Europium cryptate donor (1 ng/well) (Cell Signaling Technologies catalog number 2352) and anti-phospho MEK1 (S298) antibody labeled with d2 acceptor (Cell Signaling Technologies catalog number 9128) (10 ng/well) were prepared in 1× detection buffer (CisBio) and added to each well of the assay plate and allowed to incubate at RT overnight. The following day the fluorescence emission from each well was measured in EnVision® (Perkin Elmer) at an excitation of 330 nm and dual emission wavelengths of 615 nm and 665 nm. The signal in each well at 665 nm was multiplied by 10,000 and divided by the signal in the same well at 615 nm to obtain a ratio. Ratio values ([665·10,000]÷615) were plotted as a function of the concentration of compound to determine IC50 values.

pIC50	Structure (SMILES)
7.24	Cc1cccc(-c2ccc(-c3cc4cnc(NCC(F)F)nc4n(CCN4CCNCC4)c3=O)c(Cl)c2)n1 [Example I-89, 6-[2-Chloro-4-(6-methyl-2-pyridyl)phenyl]-2-(2,2-difluoroethylamino)-8-(2-piperazin-1-ylethyl)pyrido[2,3-d]pyrimidin-7-one]
7.20	CCNc1ncc2cc(-c3ccc(-c4cncc(C)n4)cc3Cl)c(=O)n(CCC3CNCCO3)c2n1 (single isomer, unassigned) [Example I-22]
7.42	Cc1cccc(-c2ccc(-c3cc4cnc(N)nc4n(CCC4CNCCO4)c3=O)c(Cl)c2)n1 (racemic) [Example I-127, 2-Amino-6-[2-chloro-4-(6-methyl-2-pyridyl)phenyl]-8-(2-morpholin-2-ylethyl)pyrido[2,3-d]pyrimidin-7-one]
6.84	CCNc1ncc2cc(-c3ccc(-c4cncc(C)n4)cc3Cl)c(=O)n(CCCCN)c2n1 [Example I-2, 8-(4-Aminobutyl)-6-[2-chloro-4-(6-methylpyrazin-2-yl)phenyl]-2-(ethylamino)pyrido[2,3-d]pyrimidin-7-one]
6.77	CCNc1ncc2cc(-c3ccc(-c4cncc(C)n4)cc3Cl)c(=O)n(CC3CCNCC3)c2n1 [Example I-6, 6-(2-Chloro-4-(6-methylpyrazin-2-yl)phenyl)-2-(ethylamino)-8-(piperidin-4-ylmethyl)pyrido[2,3-d]pyrimidin-7(8H)-one]
6.83	CCNc1ncc2cc(-c3ccc(-c4cncc(C)n4)cc3Cl)c(=O)n(C[C@H]3CC[C@H](N)CC3)c2n1 [Example I-5, 8-(((1r,4r)-4-aminocyclohexyl)methyl)-6-(2-chloro-4-(6-methylpyrazin-2-yl)phenyl)-2-(ethylamino)pyrido[2,3-d]pyrimidin-7(8H)-one]
7.33	CCNc1ncc2cc(-c3ccc(-c4cccc(C)n4)cc3Cl)c(=O)n(C[C@H]3CC[C@H](N)CC3)c2n1 [Example I-15, 8-(((1r,4r)-4-Aminocyclohexyl)methyl)-6-(2-chloro-4-(6-methylpyridin-2-yl)phenyl)-2-(ethylamino)pyrido[2,3-d]pyrimidin-7(8H)-one]

What follows are compounds tested against human recombinant PAK1-KD protein (Homo sapiens, UniProt Q13153) (assay: PAK1-KD (Kinase Domain) IC50 Zlyte Assay (FRET peptide substrate phosphorylation)). Conditions: Z'-LYTE, Biological Example 1.
Chain of human recombinant PAK1-KD protein (Q13153 270-521 limits assumed): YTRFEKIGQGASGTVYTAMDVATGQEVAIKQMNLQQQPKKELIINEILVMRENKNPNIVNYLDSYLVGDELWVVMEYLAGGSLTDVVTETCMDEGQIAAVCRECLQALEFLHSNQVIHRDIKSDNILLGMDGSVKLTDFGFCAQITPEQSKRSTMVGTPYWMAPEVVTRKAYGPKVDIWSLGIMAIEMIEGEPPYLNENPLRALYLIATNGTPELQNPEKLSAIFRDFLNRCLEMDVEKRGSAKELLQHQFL

pKi	Structure (SMILES)
8.11	Cc1cccc(-c2ccc(-c3cc4cnc(NCC(F)F)nc4n(CCN4CCNCC4)c3=O)c(Cl)c2)n1 [Example I-89, 6-[2-Chloro-4-(6-methyl-2-pyridyl)phenyl]-2-(2,2-difluoroethylamino)-8-(2-piperazin-1-ylethyl)pyrido[2,3-d]pyrimidin-7-one]
8.05	CCNc1ncc2cc(-c3ccc(-c4cncc(C)n4)cc3Cl)c(=O)n(CCC3CNCCO3)c2n1 (single isomer, unassigned) [Example I-22]
8.42	Cc1cccc(-c2ccc(-c3cc4cnc(N)nc4n(CCC4CNCCO4)c3=O)c(Cl)c2)n1 (racemic) [Example I-127, 2-Amino-6-[2-chloro-4-(6-methyl-2-pyridyl)phenyl]-8-(2-morpholin-2-ylethyl)pyrido[2,3-d]pyrimidin-7-one]
8.19	Cc1cccc(-c2ccc(-c3cc4cnc(NC5COC5)nc4n(CCCCO)c3=O)c(C)c2)n1 [Example I-81, 8-(4-Hydroxybutyl)-6-[2-methyl-4-(6-methyl-2-pyridyl)phenyl]-2-(oxetan-3-ylamino)pyrido[2,3-d]pyrimidin-7-one]
8.85	CNc1ncc2cc(-c3ccc(-c4cccc(C)n4)cc3Cl)c(=O)n(CCOCCN)c2n1 [Example I-96, 8-[2-(2-Aminoethoxy)ethyl]-[2-chloro-4-(6-methyl-2-pyridyl)phenyl]-2-(methylamino)pyrido[2,3-d]pyrimidin-7-one]
7.52	CNC(=O)CCCn1c(=O)c(-c2ccc(-c3cccc(C)n3)cc2C)cc2cnc(NC3COC3)nc21 [Example I-87, N-methyl-4-[6-[2-methyl-4-(6-methyl-2-pyridyl)phenyl]-2-(oxetan-3-ylamino)-7-oxo-pyrido[2,3-d]pyrimidin-8-yl]butanamide]
7.11	Cc1cncc(-c2ccc(-c3cc4cnc(NC5COC5)nc4n(CCOCCO)c3=O)c(Cl)c2)n1 [Example I-67, 6-[2-Chloro-4-(6-methylpyrazin-2-yl)phenyl]-8-[2-(2-hydroxyethoxy)ethyl]-2-(oxetan-3-ylamino)pyrido[2,3-d]pyrimidin-7-one]
7.84	CCNc1ncc2cc(-c3ccc(-c4cncc(C)n4)cc3Cl)c(=O)n(CC[C@@H]3[C@H]4CNC[C@@H]34)c2n1 [Example I-65, 8-(2-((1R,5S,6s)-3-Azabicyclo[3.1.0]hexan-6-yl)ethyl)-6-(2-chloro-4-(6-methylpyrazin-2-yl)phenyl)-2-(ethylamino)pyrido[2,3-d]pyrimidin-7(8H)-one]
8.43	CCNc1ncc2cc(-c3ccc(-c4cccc(C)n4)cc3Cl)c(=O)n(C3COC4(CCNC4)C3)c2n1 (stereo not drawn) [Example I-121, 6-[2-Chloro-4-(6-methyl-2-pyridyl)phenyl]-2-(ethylamino)-8-(1-oxa-7-azaspiro[4.4]nonan-3-yl)pyrido[2,3-d]pyrimidin-7-one]
8.07	CNc1ncc2cc(-c3ccc(-c4cncc(C)n4)cc3Cl)c(=O)n(CC(=O)N3CCC[C@@H]3CN)c2n1 [Example I-153, 8-[2-[(2R)-2-(Aminomethyl)pyrrolidin-1-yl]-2-oxo-ethyl]-6-[2-chloro-4-(6-methylpyrazin-2-yl)phenyl]-2-(methylamino)pyrido[2,3-d]pyrimidin-7-one]
7.68	CCNc1ncc2cc(-c3ccc(-c4cccc(C)n4)cc3Cl)c(=O)n(CC(=O)N3CCOCC3)c2n1 [Example I-120, 6-[2-chloro-4-(6-methyl-2-pyridyl)phenyl]-2-(ethylamino)-8-(2-morpholino-2-oxo-ethyl)pyrido[2,3-d]pyrimidin-7-one]
7.17	CCNCC(O)Cn1c(=O)c(-c2ccc(-c3cncc(C)n3)cc2Cl)cc2cnc(NCC)nc21 (stereo not drawn) [Example I-25, 6-[2-chloro-4-(6-methylpyrazin-2-yl)phenyl]-2-(ethylamino)-8-[3-(ethylamino)-2-hydroxy-propyl]pyrido[2,3-d]pyrimidin-7-one]
7.92	CNc1ncc2cc(-c3ccc(-c4cncc(C)n4)cc3Cl)c(=O)n(CC[C@H]3OC[C@@H](N)CO3)c2n1 [Example I-172, 8-[2-(5-amino-1,3-dioxan-2-yl)ethyl]-6-[2-chloro-4-(6-methylpyrazin-2-yl)phenyl]-2-(methylamino)pyrido[2,3-d]pyrimidin-7-one]
7.79	CNc1ncc2cc(-c3ccc(-c4cccc(C)n4)cc3Cl)c(=O)n(CC3CNCCS3(=O)=O)c2n1 (single isomer, unassigned) [I-197 Isomer A, 6-[2-chloro-4-(6-methyl-2-pyridyl)phenyl]-8-[(1,1-dioxo-1 4-thiazinan-2-yl)methyl]-2-(methylamino)pyrido[2,3-d]pyrimidin-7-one]
7.93	CCNc1ncc2cc(-c3ccc(-c4cncc(C)n4)cc3Cl)c(=O)n(CC3C4CN(C)CC43)c2n1 (stereo not drawn) [Example I-128, 6-[2-chloro-4-(6-methylpyrazin-2-yl)phenyl]-2-(ethylamino)-8-[(3-methyl-3-azabicyclo[3.1.0]hexan-6-yl)methyl]pyrido[2,3-d]pyrimidin-7-one]
7.34	Cc1cncc(-c2ccc(-c3cc4cnc(NC5COC5)nc4n(CCCCO)c3=O)c(Cl)c2)n1 [Example I-50, 6-[2-Chloro-4-(6-methylpyrazin-2-yl)phenyl]-8-(4-hydroxybutyl)-2-(oxetan-3-ylamino)pyrido[2,3-d]pyrimidin-7-one]
8.30	CNc1ncc2cc(-c3ccc(-c4cccc(C)n4)cc3C)c(=O)n(C[C@@H]3CNCCO3)c2n1 [Example I-171, 6-(2-methyl-4-(6-methylpyridin-2-yl)phenyl)-2-(methylamino)-8-[[(2S)-morpholin-2-yl]methyl]pyrido[2,3-d]pyrimidin-7(8H)-one]
8.40	CNc1ncc2cc(-c3ccc(-c4cccc(C)n4)cc3Cl)c(=O)n(CCS(=O)(=O)N3CCNCC3)c2n1 [Example I-141, 6-[2-chloro-4-(6-methyl-2-pyridyl)phenyl]-2-(methylamino)-8-(2-piperazin-1-ylsulfonylethyl)pyrido[2,3-d]pyrimidin-7-one]
6.97	CCNc1ncc2cc(-c3ccc(-c4cncc(C)n4)cc3Cl)c(=O)n(CC[C@H](O)CO)c2n1 [Example I-83, (S)-6-(2-Chloro-4-(6-methylpyrazin-2-yl)phenyl)-8-(3,4-dihydroxybutyl)-2-(ethylamino)pyrido[2,3-d]pyrimidin-7(8H)-one]
6.49	CCNc1ncc2cc(-c3ccc(-c4cncc(C)n4)cc3Cl)c(=O)n(CCN3CCNCC3=O)c2n1 [Example I-90, 6-[2-Chloro-4-(6-methylpyrazin-2-yl)phenyl]-2-(ethylamino)-8-[2-(2-oxopiperazin-1-yl)ethyl]pyrido[2,3-d]pyrimidin-7-one]
8.09	Cc1cccc(-c2ccc(-c3cc4cnc(NC5COC5)nc4n(C[C@@H]4CNCCO4)c3=O)c(Cl)c2)n1 [Example I-188, 6-[2-chloro-4-(6-methyl-2-pyridyl)phenyl]-8-[[(2S)-morpholin-2-yl]methyl]-2-(oxetan-3-ylamino)pyrido[2,3-d]pyrimidin-7-one]
7.26	Cc1cccc(-c2ccc(-c3cc4cnc(NC5COC5)nc4n(CC(=O)N4CCNCC4)c3=O)c(C)c2)n1 [Example I-106, 6-[2-Methyl-4-(6-methyl-2-pyridyl)phenyl]-2-(oxetan-3-ylamino)-8-(2-oxo-2-piperazin-1-yl-ethyl)pyrido[2,3-d]pyrimidin-7-one]
7.25	CNc1ncc2cc(-c3ccc(-c4cncc(C)n4)cc3Cl)c(=O)n(CCNCCO)c2n1 [Example I-139, 6-[2-chloro-4-(6-methylpyrazin-2-yl)phenyl]-8-[2-(2-hydroxyethylamino)ethyl]-2-(methylamino)pyrido[2,3-d]pyrimidin-7-one]
